# Experiments:
# [1] = target: T1, Endoplasmic reticulum aminopeptidase 1 (Homo sapiens, UniProt Q9NZ08); assay: Inhibition of ERAP1 (unknown origin) using L-AMC as substrate
# [2] = target: T2, Endoplasmic reticulum aminopeptidase 2 (Homo sapiens, UniProt Q6P179); assay: Inhibition of C-terminal Hexa-histidine-tagged human recombinant ERAP2 expressed in Sf9 cells using R-AMC as substrate incubated for 15 mins by Michaelis-Menten analysis
# [3] = target: Aminopeptidase N (Homo sapiens, UniProt P15144); assay: Inhibition of FLAG-tagged human recombinant Aminopeptidase N
# Aminopeptidase N, sequence (P15144 whole entry): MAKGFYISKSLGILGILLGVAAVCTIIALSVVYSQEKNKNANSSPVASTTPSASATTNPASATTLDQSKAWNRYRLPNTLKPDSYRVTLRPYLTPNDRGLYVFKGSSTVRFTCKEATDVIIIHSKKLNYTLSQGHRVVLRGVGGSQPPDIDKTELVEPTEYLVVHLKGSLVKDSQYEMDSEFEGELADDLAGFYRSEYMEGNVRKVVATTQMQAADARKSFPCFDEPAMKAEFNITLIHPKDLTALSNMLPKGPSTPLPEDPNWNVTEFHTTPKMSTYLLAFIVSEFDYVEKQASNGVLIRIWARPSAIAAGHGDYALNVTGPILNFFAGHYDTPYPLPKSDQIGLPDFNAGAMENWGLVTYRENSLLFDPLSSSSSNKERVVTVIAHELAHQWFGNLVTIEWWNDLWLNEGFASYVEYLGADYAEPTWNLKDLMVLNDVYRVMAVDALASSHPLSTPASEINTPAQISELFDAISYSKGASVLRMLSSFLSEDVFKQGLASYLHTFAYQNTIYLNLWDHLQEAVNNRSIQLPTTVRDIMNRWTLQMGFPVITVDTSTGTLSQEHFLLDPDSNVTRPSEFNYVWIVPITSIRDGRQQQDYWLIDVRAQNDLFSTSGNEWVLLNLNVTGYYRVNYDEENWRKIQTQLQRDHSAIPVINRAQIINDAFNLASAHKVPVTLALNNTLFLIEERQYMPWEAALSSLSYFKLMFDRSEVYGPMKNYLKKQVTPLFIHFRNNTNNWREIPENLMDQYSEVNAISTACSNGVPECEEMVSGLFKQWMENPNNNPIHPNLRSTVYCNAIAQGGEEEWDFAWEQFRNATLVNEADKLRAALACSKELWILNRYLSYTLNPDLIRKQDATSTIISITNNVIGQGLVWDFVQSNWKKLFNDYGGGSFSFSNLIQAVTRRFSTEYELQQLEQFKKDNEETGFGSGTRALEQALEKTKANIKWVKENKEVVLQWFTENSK
# [4] = target: T1, Endoplasmic reticulum aminopeptidase 1; assay: Inhibition of C-terminal Hexa-histidine-tagged human recombinant ERAP1 expressed in Sf9 cells using L-AMC as substrate incubated for 15 mins by Michaelis-Menten analysis
# [5] = target: T2, Endoplasmic reticulum aminopeptidase 2; assay: Inhibition of ERAP2 (unknown origin) using R-AMC as substrate
# [6] = Inhibition of C-terminal Hexa-histidine-tagged human recombinant IRAP expressed in Sf9 cells using R-AMC as substrate incubated for 15 mins by Michaelis-Menten analysis
# [7] = target: Cytosol aminopeptidase (Homo sapiens, UniProt P28838); assay: Inhibition of human recombinant Leucine aminopeptidase 3
# Cytosol aminopeptidase, sequence (P28838 whole entry): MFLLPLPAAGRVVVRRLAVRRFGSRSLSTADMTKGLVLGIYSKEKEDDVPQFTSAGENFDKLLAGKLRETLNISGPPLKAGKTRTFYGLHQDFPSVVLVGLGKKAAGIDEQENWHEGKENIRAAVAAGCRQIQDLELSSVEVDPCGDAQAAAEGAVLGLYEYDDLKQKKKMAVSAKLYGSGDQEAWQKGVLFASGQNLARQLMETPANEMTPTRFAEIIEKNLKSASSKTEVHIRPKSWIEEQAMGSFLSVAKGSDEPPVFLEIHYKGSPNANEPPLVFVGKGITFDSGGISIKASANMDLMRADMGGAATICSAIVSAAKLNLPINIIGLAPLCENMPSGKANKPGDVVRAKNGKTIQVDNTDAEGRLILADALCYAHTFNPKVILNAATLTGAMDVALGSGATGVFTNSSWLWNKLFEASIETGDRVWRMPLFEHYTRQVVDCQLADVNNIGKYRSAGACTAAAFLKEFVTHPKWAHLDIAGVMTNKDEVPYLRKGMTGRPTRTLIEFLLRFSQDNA
# [8] = target: T3, Leukotriene A-4 hydrolase (Homo sapiens, UniProt P09960); assay: Inhibition of full length human recombinant Leukotriene A-4 hydrolase expressed in baculovirus infected Insect cells; parameters: species or system Insect cell
# T3 sequence (P09960 whole entry): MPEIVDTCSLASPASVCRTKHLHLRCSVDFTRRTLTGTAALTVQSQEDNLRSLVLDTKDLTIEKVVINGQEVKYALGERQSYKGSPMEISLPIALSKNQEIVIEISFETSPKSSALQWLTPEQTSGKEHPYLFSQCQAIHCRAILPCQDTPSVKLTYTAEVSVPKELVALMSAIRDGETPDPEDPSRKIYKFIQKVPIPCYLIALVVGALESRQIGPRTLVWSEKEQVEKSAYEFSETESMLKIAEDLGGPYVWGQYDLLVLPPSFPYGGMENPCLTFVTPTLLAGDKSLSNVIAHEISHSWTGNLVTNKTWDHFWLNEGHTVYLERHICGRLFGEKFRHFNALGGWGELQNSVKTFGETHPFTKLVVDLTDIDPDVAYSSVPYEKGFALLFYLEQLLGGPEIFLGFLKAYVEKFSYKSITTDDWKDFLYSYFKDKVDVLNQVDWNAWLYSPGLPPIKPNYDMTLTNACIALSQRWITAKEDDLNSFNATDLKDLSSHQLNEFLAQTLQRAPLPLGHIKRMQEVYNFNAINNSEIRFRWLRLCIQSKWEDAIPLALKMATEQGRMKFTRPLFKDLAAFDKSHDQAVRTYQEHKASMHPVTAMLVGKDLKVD
# T1 sequence (Q9NZ08 whole entry): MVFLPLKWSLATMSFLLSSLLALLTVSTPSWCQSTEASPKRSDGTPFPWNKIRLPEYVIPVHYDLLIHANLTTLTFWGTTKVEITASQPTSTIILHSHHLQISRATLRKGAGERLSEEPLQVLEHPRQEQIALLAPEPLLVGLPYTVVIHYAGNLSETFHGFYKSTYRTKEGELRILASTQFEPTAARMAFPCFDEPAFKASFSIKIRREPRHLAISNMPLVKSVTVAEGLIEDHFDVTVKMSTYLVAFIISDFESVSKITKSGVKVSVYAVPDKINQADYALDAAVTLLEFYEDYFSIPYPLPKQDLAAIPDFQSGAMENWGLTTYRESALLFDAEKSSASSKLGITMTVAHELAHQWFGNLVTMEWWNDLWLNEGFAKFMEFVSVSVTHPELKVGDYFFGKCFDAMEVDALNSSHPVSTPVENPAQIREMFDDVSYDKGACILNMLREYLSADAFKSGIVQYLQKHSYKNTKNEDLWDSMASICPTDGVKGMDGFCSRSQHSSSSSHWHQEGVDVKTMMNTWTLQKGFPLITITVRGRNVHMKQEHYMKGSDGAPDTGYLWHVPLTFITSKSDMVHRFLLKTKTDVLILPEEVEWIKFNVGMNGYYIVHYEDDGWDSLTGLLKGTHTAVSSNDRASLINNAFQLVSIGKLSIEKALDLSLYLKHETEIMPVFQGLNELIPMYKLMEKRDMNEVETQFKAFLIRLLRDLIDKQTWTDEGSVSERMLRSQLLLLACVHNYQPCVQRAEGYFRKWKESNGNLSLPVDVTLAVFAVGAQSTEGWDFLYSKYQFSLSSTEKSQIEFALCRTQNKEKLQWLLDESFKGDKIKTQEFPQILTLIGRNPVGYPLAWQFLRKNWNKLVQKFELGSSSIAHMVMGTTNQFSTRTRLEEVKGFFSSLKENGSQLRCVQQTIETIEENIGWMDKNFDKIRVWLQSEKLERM
# T2 sequence (Q6P179 whole entry): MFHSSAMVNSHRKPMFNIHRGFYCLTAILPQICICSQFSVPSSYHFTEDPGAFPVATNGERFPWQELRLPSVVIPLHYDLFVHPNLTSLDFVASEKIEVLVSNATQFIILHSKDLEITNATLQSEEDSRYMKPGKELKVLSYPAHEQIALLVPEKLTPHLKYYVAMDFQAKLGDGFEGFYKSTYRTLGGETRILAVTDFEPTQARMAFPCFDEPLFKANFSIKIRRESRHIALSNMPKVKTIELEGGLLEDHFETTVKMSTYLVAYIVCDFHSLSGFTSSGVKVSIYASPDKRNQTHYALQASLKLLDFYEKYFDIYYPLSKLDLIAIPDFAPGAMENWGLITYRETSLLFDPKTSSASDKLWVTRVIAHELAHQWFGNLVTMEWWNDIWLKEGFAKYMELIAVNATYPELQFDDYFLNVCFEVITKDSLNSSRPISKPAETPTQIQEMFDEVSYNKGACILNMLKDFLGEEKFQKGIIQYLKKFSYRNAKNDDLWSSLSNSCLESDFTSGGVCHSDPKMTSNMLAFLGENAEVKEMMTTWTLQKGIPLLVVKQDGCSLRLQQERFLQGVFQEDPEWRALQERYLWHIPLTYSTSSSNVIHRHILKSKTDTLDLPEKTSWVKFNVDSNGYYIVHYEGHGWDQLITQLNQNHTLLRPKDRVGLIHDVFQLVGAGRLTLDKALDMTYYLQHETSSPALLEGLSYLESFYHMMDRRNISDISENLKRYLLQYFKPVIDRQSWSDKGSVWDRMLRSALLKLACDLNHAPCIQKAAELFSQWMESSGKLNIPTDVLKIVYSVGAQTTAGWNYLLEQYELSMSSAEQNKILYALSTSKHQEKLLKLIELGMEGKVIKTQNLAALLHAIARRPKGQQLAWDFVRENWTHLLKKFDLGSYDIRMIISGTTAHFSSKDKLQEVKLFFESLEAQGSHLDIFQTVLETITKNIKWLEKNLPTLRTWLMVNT
smiles,measurement,setting,value
O=C(NO)[C@H](Cc1ccc(Oc2ccccc2)cc1)n1cc(CNS(=O)(=O)c2ccc(-c3ccccn3)s2)nn1,IC50,[1],> 100 µM
CC(C)C[C@H](N)CS,IC50,[2],0.61 µM
same,IC50,[3],0.008 µM
same,IC50,[4],0.11 µM
COc1ccc(C[C@@H](C(=O)NO)n2cc(CNS(=O)(=O)c3ccc(-c4ccccc4)s3)nn2)cc1,IC50,[1],> 100 µM
COc1ccc(C(=O)O)cc1S(=O)(=O)Nc1ccc(C(F)(F)F)cc1N1CCCCC1,IC50,[5],26.8 µM
CC(C)C[C@H](NC(=O)[C@@H](O)[C@H](N)Cc1ccccc1)C(=O)O [UBENIMEX],IC50,[6],> 100 µM
same,IC50,[4],11 µM
CC(C)C[C@@H](N)[C@H](O)C(=O)N[C@H](C(=O)N[C@H](C(=O)N[C@@H](CC(=O)O)C(=O)O)C(C)C)C(C)C [AMASTATIN],IC50,[6],25 µM
same,IC50,[4],22 µM
O=C(C[C@H](Cc1ccc(O)cc1)n1nncc1CNS(=O)(=O)c1ccc(-c2ccccn2)s1)NO,IC50,[1],> 100 µM
CC(C)C[C@@H](C(=O)N[C@H](C(=O)OC1CCCC1)c1ccccc1)[C@H](O)C(=O)NO [TOSEDOSTAT],IC50,[2],0.77 µM
same,IC50,[7],0.005 µM
same,IC50,[3],0.03 µM
same,IC50,[4],18 µM
same,IC50,[8],0.008 µM

# Reference: ChEMBL document CHEMBL5500429, “ERAP Inhibitors in Autoimmunity and Immuno-Oncology: Medicinal Chemistry Insights” (J Med Chem, 2024)
